Assay results from patent publication US20230002359A1, “PESTICIDALLY ACTIVE FUSED BICYCLIC HETEROAROMATIC COMPOUNDS” (priority 2019, published 2023).

Assays:
Assay type in all cases: in vivo
[1] = system: Diabrotica Balteata (Corn Root Worm); assay: Example B1: Diabrotica balteata (corn root worm), maize sprouts sprayed, L2 larvae; conditions: 96 h, application rate of 200 ppm, 4 days after infestation, L2 larvae, read-out: control in at least one of the two categories (mortality or growth inhibition)
Summary of the method: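 Spray test: maize sprouts on agar, aqueous dilutions of 10′000 ppm DMSO stock; after drying, 6–10 L2 larvae/well. Read-out at 4 d post-infestation: mortality and growth inhibition vs untreated.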

[2] = system: Chilo suppressalis (Striped Rice Stemborer); assay: Example B3: Chilo suppressalis (striped rice stemborer), artificial diet, L2 larvae; conditions: 144 h, application rate of 200 ppm, 6 days after infestation, L2 larvae, read-out: control in at least one of the three categories (mortality, anti-feedant effect, or growth inhibition)
Summary of the method: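 First, artificial diet was treated with aqueous solutions prepared from 10'000 ppm DMSO stocks; second, after drying, L2 larvae (6-8/well) were added; third, effects were assessed at 6 days against untreated controls, counting control when any of three categories was higher.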

[3] = system: Plutella xylostella (Diamond Back Moth); assay: Example B4: Plutella xylostella (diamond back moth), artificial diet, eggs, 24-well; conditions: 192 h, application rate of 200 ppm, 8 days after infestation, eggs, read-out: control in at least one of the two categories (mortality or growth inhibition)
Description: 24-well microtiter plates with artificial diet were treated with aqueous test solutions prepared from 10′000 ppm DMSO stock solutions by pipetting. After drying, Plutella eggs were pipetted through a plastic stencil onto a gel blotting paper and the plate was closed with it. The samples were assessed for mortality and growth inhibition in comparison to untreated samples 8 days after infestation.

[4] = system: Myzus persicae (Green Peach Aphid); assay: Example B6: Myzus persicae (green peach aphid) intrinsic activity, sucrose solution; conditions: 120 h, test rate of 12 ppm, 5 days after infestation, intrinsic activity, read-out: mortality
Description: Test compounds prepared from 10′000 ppm DMSO stock solutions were applied by pipette into 24-well microtiter plates and mixed with sucrose solution. The plates were closed with a stretched Parafilm. A plastic stencil with 24 holes was placed onto the plate and infested pea seedlings were placed directly on the Parafilm. The infested plate was closed with a gel blotting paper and another plastic stencil and then turned upside down. The samples were assessed for mortality 5 days after infestation.

[5] = system: Spodoptera littoralis (Egyptian Cotton Leaf Worm); assay: Example B7: Spodoptera littoralis (Egyptian cotton leaf worm), cotton leaf discs sprayed, L1 larvae; conditions: foliar, 72 h, application rate of 200 ppm, 3 days after infestation, L1 larvae, read-out: control in at least one of the three categories (mortality, anti-feedant effect, or growth inhibition)
Summary of the method: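 Spray application onto agar-supported cotton leaf discs used aqueous solutions derived from 10′000 ppm DMSO stocks. Once dry, discs were infested with five L1 larvae and evaluated after 3 days for mortality, anti-feeding and growth inhibition relative to untreated controls.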

CC(Nc1ncnc2c(Br)cc(Br)cc12)c1ncnn1-c1ncccn1 (centres unmarked) [P.29, 6,8-dibromo-N-[1-(2-pyrimidin-2-yl-1,2,4-triazol-3-yl)ethyl]quinazolin-4-amine]
≥ 80%: percent control (mortality or growth inhibition) at 200 ppm [1] | percent control (mortality, anti-feedant effect or growth inhibition) at 200 ppm [2] | percent control (mortality or growth inhibition) at 200 ppm [3] | mortality at 12 ppm [4] | percent control (mortality, anti-feedant effect or growth inhibition) at 200 ppm [5]

CC(Nc1ncnc2c(OC(F)(F)F)cc(Br)cc12)c1nccnc1-c1ncccn1 (centres unmarked) [P.11, 6-bromo-N-[1-(3-pyrimidin-2-ylpyrazin-2-yl)ethyl]-8-(trifluoromethoxy)quina-zolin-4-amine]
≥ 80%: percent control (mortality or growth inhibition) at 200 ppm [1] | percent control (mortality, anti-feedant effect or growth inhibition) at 200 ppm [2] | percent control (mortality or growth inhibition) at 200 ppm [3] | mortality at 12 ppm [4] | percent control (mortality, anti-feedant effect or growth inhibition) at 200 ppm [5]

C[C@@H](c1ncnn1-c1ncccn1)N(C)c1ncnc2c(C(F)(F)F)cc(Br)cc12 [P.208, 6-bromo-N-methyl-N-[(1S)-1-(2-pyrimidin-2-yl-1,2,4-triazol-3-yl)ethyl]-8-(trifluoromethyl)quinazolin-4-amine]
≥ 80%: percent control (mortality or growth inhibition) at 200 ppm [1] | percent control (mortality, anti-feedant effect or growth inhibition) at 200 ppm [2] | percent control (mortality or growth inhibition) at 200 ppm [3] | mortality at 12 ppm [4] | percent control (mortality, anti-feedant effect or growth inhibition) at 200 ppm [5]

C[C@@H](c1ncnn1-c1ccc(C#N)cn1)N(C)c1ncnc2c(C(F)(F)F)cc(C3CC3)cc12 [P.177, 6-[5-[(1S)-1-[[6-cyclopropyl-8-(trifluoromethyl)quinazolin-4-yl]-methyl-amino]ethyl]-1,2,4-triazol-1-yl]pyridine-3-carbonitrile]
≥ 80%: percent control (mortality or growth inhibition) at 200 ppm [1] | percent control (mortality, anti-feedant effect or growth inhibition) at 200 ppm [2] | percent control (mortality or growth inhibition) at 200 ppm [3] | mortality at 12 ppm [4] | percent control (mortality, anti-feedant effect or growth inhibition) at 200 ppm [5]

CC(Nc1ncnc2c(C(F)(F)F)cc(Br)cc12)c1ncnn1-c1ncccn1 (centres unmarked) [P.44, 6-bromo-N-[1-(2-pyrimidin-2-yl-1,2,4-triazol-3-yl)ethyl]-8-(trifluoromethyl)quinazolin-4-amine]
≥ 80%: percent control (mortality or growth inhibition) at 200 ppm [1] | percent control (mortality, anti-feedant effect or growth inhibition) at 200 ppm [2] | percent control (mortality or growth inhibition) at 200 ppm [3] | mortality at 12 ppm [4] | percent control (mortality, anti-feedant effect or growth inhibition) at 200 ppm [5]

CC(Nc1ncnc2c(C(F)(F)F)cc(Br)cc12)c1nccnc1-c1ncccn1 (centres unmarked) [P.133, 6-bromo-N-[1-(3-pyrimidin-2-ylpyrazin-2-yl)ethyl]-8-(trifluoromethyl)quinazolin-4-amine]
≥ 80%: percent control (mortality or growth inhibition) at 200 ppm [1] | percent control (mortality, anti-feedant effect or growth inhibition) at 200 ppm [2] | percent control (mortality or growth inhibition) at 200 ppm [3] | mortality at 12 ppm [4] | percent control (mortality, anti-feedant effect or growth inhibition) at 200 ppm [5]

CC(Nc1ncnc2c(Br)cc(OC(F)(F)F)cc12)c1nccnc1-c1ncccn1 (centres unmarked) [P.12, 8-bromo-N-[1-(3-pyrimidin-2-ylpyrazin-2-yl)ethyl]-6-(trifluoromethoxy)quina-zolin-4-amine]
≥ 80%: percent control (mortality or growth inhibition) at 200 ppm [1] | percent control (mortality, anti-feedant effect or growth inhibition) at 200 ppm [2] | percent control (mortality or growth inhibition) at 200 ppm [3] | mortality at 12 ppm [4] | percent control (mortality, anti-feedant effect or growth inhibition) at 200 ppm [5]
